Assay results taken from the supplement of paper PMC10627819.

What was measured:
[1] = test system: B. subtilis 168; experiment: fitness (endpoint OD595 vs no drug) (fraction); higher = more growth
Outline: (§1)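 With the first reading as background, OD595 was measured every 30 min for 14 h in 384-well plates kept at 37 °C and inoculated at OD595 0.01. TSB, LB Lennox or CY was the medium. Fitness is the optical density at the transition into stationary phase divided by the robust mean of no-drug control wells, with a cap of 1.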

[2] = test system: S. pneumoniae D39V; experiment: as above
Outline: as §1

[3] = test system: B. subtilis 168; experiment: Bliss interaction score (quartile over a dose matrix) (fitness difference); higher = more antagonism (negative = synergy)
Outline: (§2)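 Quartiles summarise the Bliss score over technical, biological and donor/recipient replicates, where the score is observed minus expected fitness under a product model. Expected fitness uses single-drug values inferred from combination data. Fitness is OD595 at entry into stationary phase over the plate's robust no-drug mean, capped at 1.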

[4] = test system: S. aureus DSM 20231; experiment: as above
Outline: as §2

[5] = test system: S. aureus Newman; experiment: as above
Outline: as §2

[6] = test system: S. pneumoniae D39V; experiment: as above
Outline: as §2
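Throughout, for Bliss interaction score (quartile over a dose matrix): first quartile when negative (synergy) and third quartile when positive (antagonism).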

CCC[C@@H]1C[C@@H](C(=O)N[C@@H]([C@H]2O[C@H](SC)[C@H](O)[C@@H](O)[C@H]2O)[C@@H](C)O)N(C)C1 [Lincomycin] + CN(C)c1cc(NC(=O)CNC(C)(C)C)c(O)c2c1C[C@H]1C[C@H]3[C@H](N(C)C)C(O)=C(C(N)=O)C(=O)[C@@]3(O)C(O)=C1C2=O [Tigecycline]
fitness
Conditions | first compound 0.1 µg/mL | first compound 0.2 µg/mL | first compound 0.215 µg/mL | first compound 0.4 µg/mL | first compound 0.43 µg/mL | first compound 0.8 µg/mL | first compound 0.86 µg/mL
[1], partner 0.039 µg/mL | 0.894 | 0.865 | – | 0.979 | – | – | –
[1], partner 0.078 µg/mL | 0.953 | 0.861 | – | 0.897 | – | – | –
[1], partner 0.156 µg/mL | 0.924 | 0.867 | – | 0.846 | – | – | –
[2], partner 0.65 µg/mL | – | 0.637 | 0.804 | 0.572 | 0.745 | 0.275 | 0.238
[2], partner 1.3 µg/mL | – | 0.63 | 0.789 | 0.578 | 0.694 | 0.314 | 0.213
[2], partner 2.6 µg/mL | – | 0.618 | 0.802 | 0.572 | 0.648 | 0.186 | 0.156

fitness, [1], one replicate
Conditions | first compound 0.4 µg/mL | first compound 0.8 µg/mL | first compound 1.6 µg/mL
partner 0.125 µg/mL | 0.977 | ≥ 1 | 0.944
partner 0.25 µg/mL | 0.856 | 0.886 | 0.845
partner 0.5 µg/mL | 0.867 | 0.888 | 0.907

Conditions | Bliss interaction score
[3] | -0.076
[4] | -0.213
[5] | 0.0588
[6] | -0.133

CCC[C@@H]1C[C@@H](C(=O)N[C@@H]([C@H]2O[C@H](SC)[C@H](O)[C@@H](O)[C@H]2O)[C@@H](C)O)N(C)C1 [Lincomycin] + CN[C@@H]1[C@H](O[C@H]2[C@H](O[C@H]3[C@H](O)[C@@H](O)[C@H](N=C(N)N)[C@@H](O)[C@@H]3N=C(N)N)O[C@@H](C)[C@]2(O)C=O)O[C@@H](CO)[C@H](O)[C@H]1O [Streptomycin]
fitness
Conditions | first compound 0.1 µg/mL | first compound 0.2 µg/mL | first compound 0.215 µg/mL | first compound 0.4 µg/mL | first compound 0.43 µg/mL | first compound 0.8 µg/mL | first compound 0.86 µg/mL
[1], partner 2 µg/mL | 0.935 | 0.913 | – | 0.9 | – | – | –
[1], partner 8 µg/mL | – | – | – | 0.0442 | – | – | –
[2], partner 2 µg/mL | – | – | 0.768 | – | 0.681 | – | 0.231
[2], partner 4 µg/mL | – | 0.699 | 0.784 | 0.627 | 0.686 | 0.305 | 0.284
[2], partner 8 µg/mL | – | 0.588 | 0.796 | 0.539 | 0.667 | 0.203 | 0.195

fitness, [2], one replicate
Conditions | first compound 0.2 µg/mL | first compound 0.4 µg/mL | first compound 0.8 µg/mL
partner 2 µg/mL | 0.759 | 0.7 | 0.421
partner 16 µg/mL | 0.509 | 0.369 | 0.0724

Conditions | Bliss interaction score
[3] | 0.105
[4] | -0.107
[5] | 0.0761
[6] | -0.129

CCC[C@@H]1C[C@@H](C(=O)N[C@@H]([C@H]2O[C@H](SC)[C@H](O)[C@@H](O)[C@H]2O)[C@@H](C)O)N(C)C1 [Lincomycin] + CO[C@@H]1[C@@H](OC(N)=O)[C@@H](O)[C@H](Oc2ccc3c(O)c(NC(=O)c4ccc(O)c(CC=C(C)C)c4)c(=O)oc3c2C)OC1(C)C [Novobiocin]
fitness, [1]
Conditions | first compound 0.1 µg/mL | first compound 0.2 µg/mL | first compound 0.4 µg/mL
partner 0.0125 µg/mL | 0.889 | 0.971 | 0.899
partner 0.025 µg/mL | 0.879 | 0.894 | 0.845
partner 0.05 µg/mL | 0.905 | 0.932 | 0.902

fitness, [1], one replicate
Conditions | first compound 0.1 µg/mL | first compound 0.2 µg/mL | first compound 0.4 µg/mL | first compound 0.8 µg/mL | first compound 1.6 µg/mL
partner 0.1 µg/mL | ≥ 1 | 0.995 | 0.976 | – | –
partner 0.125 µg/mL | – | – | 0.836 | 0.883 | 0.88
partner 0.2 µg/mL | 0.991 | 0.956 | ≥ 1 | – | –
partner 0.25 µg/mL | – | – | 0.809 | 0.848 | 0.819
partner 0.5 µg/mL | – | – | 0.569 | 0.563 | 0.594

Conditions | Bliss interaction score
[3] | -0.0587
[4] | 0.104
[5] | 0.191
[6] | -0.0884

COc1c(N2C[C@@H]3CCCN[C@@H]3C2)c(F)cc2c(=O)c(C(=O)O)cn(C3CC3)c12 [Moxifloxacin] + CO[C@@H]1[C@@H](OC(N)=O)[C@@H](O)[C@H](Oc2ccc3c(O)c(NC(=O)c4ccc(O)c(CC=C(C)C)c4)c(=O)oc3c2C)OC1(C)C [Novobiocin]
fitness, [1]
Conditions | first compound 0.0312 µg/mL | first compound 0.0625 µg/mL | first compound 0.125 µg/mL | first compound 2 µg/mL | first compound 4 µg/mL | first compound 8 µg/mL
partner 0.0125 µg/mL | – | – | – | 0.0294 | 0.0275 | 0.0124
partner 0.025 µg/mL | – | – | – | 0.016 | 0.0146 | 0.0125
partner 0.05 µg/mL | 0.0425 | 0.0373 | 0.0299 | 0.0168 | 0.0053 | 0.0129
partner 0.1 µg/mL | 0.0335 | 0.0227 | 0.0176 | – | – | –
partner 0.2 µg/mL | 0.0331 | 0.0211 | 0.0159 | – | – | –

fitness, [1], one replicate
Conditions | first compound 0.0312 µg/mL | first compound 0.0625 µg/mL | first compound 0.125 µg/mL
partner 0.125 µg/mL | 0.0427 | 0.0166 | 0.0119
partner 0.25 µg/mL | 0.0377 | 0.0432 | 0.0101
partner 0.5 µg/mL | 0.0342 | 0.0161 | 0.011

Conditions | Bliss interaction score
[3] | -0.0346
[4] | -0.0723
[5] | -0.113
[6] | 0.0943
